Laboratory results as given in article PMC9266351, “Degradation and Detoxification of Chlorophenols with Different Structure by LAC-4 Laccase Purified from White-Rot Fungus Ganoderma lucidum” (International Journal of Environmental Research and Public …, 2022).

How the values were obtained:
Format in all cases: biochemical, Ganoderma lucidum
LAC-4 laccase [1] = tested on: T1, LAC-4 laccase; assay: degradation over […] min; Lineweaver-Burk plot; conditions: 50 mM acetate pH 5.0, 30 °C; 0.1-8 mM substrate, 1 U/mL enzyme
T1 construct: native secreted enzyme purified from culture filtrate (GYP medium, CuSO4-induced; ammonium sulfate, anion exchange, hydrophobic chromatography); about 56 kDa by SDS-PAGE

LAC-4 laccase [2] = tested on: T1, LAC-4 laccase; assay: spectrophotometric oxidation at […] nm; non-linear Michaelis-Menten fit; conditions: 50 mM acetate pH 5.0, 30 °C; 0.01-0.1 mM substrate, 0.01 U/mL enzyme
LAC-4 laccase [3] = tested on: T1, LAC-4 laccase; assay: as above; conditions: 50 mM acetate pH 5.0, 30 °C; 0.1-1.0 mM substrate, 0.01 U/mL enzyme
LAC-4 laccase [4] = tested on: T1, LAC-4 laccase; assay: degradation over […] min; Lineweaver-Burk plot; conditions: 50 mM acetate pH 5.0, 30 °C; 0.1-8 mM substrate, 1 U/mL enzyme; remark: listed apart in the source
LAC-4 laccase [5] = tested on: T1, LAC-4 laccase; assay: spectrophotometric oxidation at […] nm; non-linear Michaelis-Menten fit; conditions: 50 mM acetate pH 5.0, 30 °C; 0.01-0.06 mM substrate (all below Km), 0.01 U/mL enzyme

Work on `Oc1c(Cl)ccc(Cl)c1Cl` [2,3,6-TCP] yielded a Km (LAC-4 laccase [1]) of 4880 µM.
Molecule `CCn1c(=NN=c2sc3cc(S(=O)(=O)O)ccc3n2CC)sc2cc(S(=O)(=O)O)ccc21` [ABTS] has a Km (LAC-4 laccase [2]) of 75 µM.
Work on `COc1ccccc1O` [guaiacol] yielded a Km (LAC-4 laccase [3]) of 97 µM.
In the case of `Oc1c(Cl)cccc1Cl` [2,6-DCP], the Km (LAC-4 laccase [4]) is reported as 3640 µM.
For `COc1cccc(OC)c1O` [2,6-DMP], the Km (LAC-4 laccase [5]) was 803 µM.
